Experimental data as given in US8778939B2, “Compounds” (Glaxo Group Limited, priority 2009, dated 2014).

Columns and labels:
[1] = biological target: T1, 6His-Tev-LRRK2 (1326-2527) (Homo sapiens, UniProt Q5S007); test: LRRK2 peptide substrate assay; type: biochemical; conditions: Biotin-LRRKtide peptide substrate, ATP at Km
T1 construct: A LRRK2 cDNA encoding residues 1326-2527 was received from Dundee University; made in house; host or cells: Spodoptera frugiperda (Sf9) insect cells, baculovirus
T1 sequence (Q5S007 1326-2527): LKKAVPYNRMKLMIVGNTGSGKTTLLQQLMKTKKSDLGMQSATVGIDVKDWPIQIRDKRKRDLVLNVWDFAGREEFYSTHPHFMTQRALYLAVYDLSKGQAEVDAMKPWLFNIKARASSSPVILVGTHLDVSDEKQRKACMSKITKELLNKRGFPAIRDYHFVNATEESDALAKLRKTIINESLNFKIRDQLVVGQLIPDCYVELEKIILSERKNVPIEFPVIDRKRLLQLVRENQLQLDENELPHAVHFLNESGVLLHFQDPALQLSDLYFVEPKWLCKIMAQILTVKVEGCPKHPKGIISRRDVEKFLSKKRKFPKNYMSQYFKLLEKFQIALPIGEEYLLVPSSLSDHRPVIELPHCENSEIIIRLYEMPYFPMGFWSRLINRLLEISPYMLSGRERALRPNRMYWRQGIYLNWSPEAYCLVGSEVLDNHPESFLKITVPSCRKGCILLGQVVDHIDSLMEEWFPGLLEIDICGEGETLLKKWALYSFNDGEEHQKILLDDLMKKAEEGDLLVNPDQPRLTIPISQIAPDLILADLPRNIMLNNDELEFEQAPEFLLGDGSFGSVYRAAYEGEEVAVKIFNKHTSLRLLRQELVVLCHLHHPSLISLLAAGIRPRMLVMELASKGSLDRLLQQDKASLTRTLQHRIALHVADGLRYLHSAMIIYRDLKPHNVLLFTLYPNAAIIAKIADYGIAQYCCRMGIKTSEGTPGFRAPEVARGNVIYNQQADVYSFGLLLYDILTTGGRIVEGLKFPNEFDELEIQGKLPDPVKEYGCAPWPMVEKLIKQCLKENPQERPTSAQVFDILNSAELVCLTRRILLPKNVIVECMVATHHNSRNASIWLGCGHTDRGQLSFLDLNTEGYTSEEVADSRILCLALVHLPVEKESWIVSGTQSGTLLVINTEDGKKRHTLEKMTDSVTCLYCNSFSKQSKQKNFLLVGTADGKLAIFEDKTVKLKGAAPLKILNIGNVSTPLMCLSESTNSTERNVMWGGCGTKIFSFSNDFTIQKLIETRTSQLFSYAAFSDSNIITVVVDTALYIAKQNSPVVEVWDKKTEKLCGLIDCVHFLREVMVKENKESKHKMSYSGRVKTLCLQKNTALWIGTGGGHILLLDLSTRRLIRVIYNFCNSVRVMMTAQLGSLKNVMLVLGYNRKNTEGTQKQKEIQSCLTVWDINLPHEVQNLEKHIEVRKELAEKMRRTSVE
Protocol: Compounds of formula (I) may be tested for in vitro kinase activity in accordance with the following assays, using the non natural, in vitro, substrates moesin and the Longer Biotin-LRRKtide. Moesin and a shorter version of the peptide were identified as substrates in Jaleel et al, (2007, Biochem J, 405: 307-317).
LRRK2 Peptide Substrate Assay
(§1) a) 100 nl of a 1:4 serial dilution of test compound with a top final assay concentration of 30 μM is added to certain wells in a low volume 384 well black plate. 100 nl of DMSO is used in certain wells as controls.
b) 3 μl enzyme solution (80 nM purified recombinant 6His-Tev-LRRK2 (1326-2527) in assay buffer: 50 mM Hepes (pH 7.2), 10 mM MgCl2, 150 mM NaCl, 5% glycerol, 0.0025% triton X-100 and 1 mM DTT) is added to certain wells. […] Plates are then incubated for a further 1-2 hours at room temperature (incubation time varies depending upon rate and linearity of reaction with differing enzyme batches). d) 6 μl detection solution (50 nM Streptavidin SureLight® APC (PerkinElmer), 4 nM Eu-W1024 labelled anti-rabbit IgG antibody (PerkinElmer), 1:500 dilution (dilution determined on a batch to batch basis) of Phospho-Ezrin (Thr567)/Radixin (Thr564)/Moesin (Thr558) Polyclonal Antibody (New England Biolabs) and 60 mM EDTA in buffer: 40 mM Hepes (pH 7.2), 150 mM NaCl, 0.03% BSA) is added to each well. Plates are then incubated for a further 2 hours at room temperature before reading on a suitable plate reader (Excitation 330 nm, emission 620 nm (Eu) and 665 nm (APC)). Data is analysed using ActivityBase software (IDBS). LRRK2 AlphaScreen Protein Substrate Assay

[2] = biological target: T1, 6His-Tev-LRRK2 (1326-2527); test: LRRK2 AlphaScreen desensitised protein substrate assay; type: biochemical
Protocol: as §1
b) 3 μl enzyme solution (80 nM purified recombinant 6His-Tev-LRRK2 (1326-2527) in assay buffer: 50 mM Hepes (pH 7.2), 10 mM MgCl2, 150 mM NaCl, 5% glycerol, 0.0025% triton X-100 and 1 mM DTT) is added to certain wells.
Plates are then incubated for a further 1-2 hours at room temperature (incubation time varies depending upon rate and linearity of reaction with differing enzyme batches).
d) 6 μl detection solution (1:250 dilution of AlphaLisa Protein A Acceptor beads (PerkinElmer), 1:64 dilution of AlphaLisa Gluthathione Donor beads (PerkinElmer) and 1:600 dilution (dilution determined on a batch to batch basis) of Phospho-Ezrin (Thr567)/Radixin (Thr564)/Moesin (Thr558) Polyclonal Antibody (New England Biolabs) in a buffer: 50 mM Hepes (pH 7.5), 250 mM NaCl, 60 mM EDTA, 1% PEG and 0.01% Brij 35) is added to each well. Plates are then incubated for a further 2 hours at room temperature in the dark before reading on an EnVision™ plate reader with AlphaScreen HTS turbo option module and AlphaScreen settings. Data is analysed using ActivityBase software (IDBS).
LRRK2 AlphaScreen Desensitised Protein Substrate Assay
This is conducted as described for the LRRK2 alphascreen protein substrate assay, with the following differences: • 1. The concentration of ATP in the substrate solution was 2 mM. • 2. The plates were incubated for 20 minutes at room temperature following addition of the substrate solution. Pharmacological Data

[3] = read-out: pIC50 in the LRRK2 peptide substrate assay (converted)
[4] = excess of ATP present (2 mM ATP), read-out: pIC50 in the LRRK2 alphascreen desensitised protein substrate assay (converted)
[5] = mean pIC50, read-out: LRRK2 peptide substrate assay (pIC50) (converted)
[6] = mean pIC50, GST-PS-Moesin (400-577) substrate, 2 mM ATP (excess of ATP present), read-out: LRRK2 alphascreen desensitised protein substrate assay (pIC50) (converted)

Row | IC50 [1, 3] [nM] | IC50 [1, 5] [nM] | Compound | IC50 [2, 4] [µM] | IC50 [2, 6] [µM]
1 | ≤ 100 | – | O=C(O)CCc1ccc(OCc2ccccc2)c(C(=O)Nc2cccnc2)c1 [Example 88, 3-{4-[(phenylmethyl)oxy]-3-[(3-pyridinylamino)carbonyl]phenyl}propanoic acid] | > 25.1 | –
2 | ≤ 100 | – | CN(C)Cc1ccc(OCc2ccccc2)c(C(=O)Nc2cccnc2)c1 [Example 71, 5-[(Dimethylamino)methyl]-2-[(phenylmethyl)oxy]-N-3-pyridinylbenzamide] | ≤ 20 | –
3 | ≤ 100 | – | O=C(Nc1cccnc1)c1cc(CN2CCCC2)ccc1OCc1ccccc1 [Example 70, 2-[(Phenylmethyl)oxy]-N-3-pyridinyl-5-(1-pyrrolidinylmethyl)benzamide] | ≤ 20 | –
4 | ≤ 100 | 63.1 | O=C(Nc1cccnc1)c1cc(C(=O)N2CCOCC2)ccc1OCc1ccc(F)cc1 [Example 127, 2-{[(4-Fluorophenyl)methyl]oxy}-5-(4-morpholinylcarbonyl)-N-3-pyridinylbenzamide] | ≤ 20 | 10
5 | ≤ 10 | – | CC(C)(O)c1ccc(OCc2ccccc2)c(C(=O)Nc2cccnc2)c1 [Example 76, 5-(1-Hydroxy-1-methylethyl)-2-[(phenylmethyl)oxy]-N-3-pyridinylbenzamide] | ≤ 20 | –
6 | ≤ 100 | – | O=C(Nc1cccnc1)c1cc(C(=O)N2CCCC2)ccc1OCc1ccccc1 [Example 37, 2-[(Phenylmethyl)oxy]-N-3-pyridinyl-5-(1-pyrrolidinylcarbonyl)benzamide] | ≤ 20 | –

The remaining lines, values behind:

Row | Compound | IC50 [1, 3] [nM] | IC50 [1, 5] [nM] | IC50 [2, 4] [µM] | IC50 [2, 6] [µM]
7 | Cn1cc(-c2ccc(OCc3ccc(F)cc3)c(C(=O)Nc3cnoc3)c2)cn1 [Example 134, 2-{[(4-Fluorophenyl)methyl]oxy}-N-4-isoxazolyl-5-(1-methyl-1H-pyrazol-4-yl)benzamide] | ≤ 100 | – | ≤ 20 | –
8 | Cn1cc(-c2ccc(OCc3ccccc3)c(C(=O)Nc3ccnnc3)c2)cn1 [Example 73, 5-(1-Methyl-1H-pyrazol-4-yl)-2-[(phenylmethyl)oxy]-N-4-pyridazinylbenzamide] | ≤ 10 | – | ≤ 20 | –
9 | O=C(Nc1cccnc1)c1cc(Br)ccc1OCc1ccccc1F [Example 58, 5-Bromo-2-{[(2-fluorophenyl)methyl]oxy}-N-3-pyridinylbenzamide] | ≤ 10 | – | ≤ 20 | –
10 | O=C(Nc1cccnc1)c1cc(-c2ccncc2)ccc1OCc1ccc(F)cc1 [Example 90, 2-{[(4-Fluorophenyl)methyl]oxy}-N-3-pyridinyl-5-(4-pyridinyl)benzamide] | ≤ 10 | – | ≤ 20 | –
11 | O=C(Nc1ccnnc1)c1cc(-c2cn[nH]c2)ccc1OCc1ccc(F)cc1 [Example 92, 2-{[(4-Fluorophenyl)methyl]oxy}-5-(1H-pyrazol-4-yl)-N-4-pyridazinylbenzamide] | ≤ 10 | – | ≤ 20 | –
12 | O=C(Nc1cccnc1)c1cc(-c2ccn[nH]2)ccc1OCc1ccc(F)c(F)c1 [Example 107, 2-{[(3,4-Difluorophenyl)methyl]oxy}-5-(1H-pyrazol-5-yl)-N-3-pyridinylbenzamide] | ≤ 10 | – | ≤ 20 | –
13 | O=C(Nc1cccnc1)c1cc(OC[C@@H]2CCCN2)ccc1OCc1ccccc1 [Example 46, 2-[(Phenylmethyl)oxy]-N-3-pyridinyl-5-{[(2S)-2-pyrrolidinylmethyl]oxy}benzamide] | ≤ 100 | – | ≤ 20 | –
14 | O=C(Nc1ccnnc1)c1cc(-c2ccncc2)ccc1OCc1ccc(F)cc1 [Example 89, 2-{[(4-Fluorophenyl)methyl]oxy}-N-4-pyridazinyl-5-(4-pyridinyl)benzamide] | ≤ 10 | – | ≤ 20 | –
15 | O=C(Nc1cccnc1F)c1cc(C(=O)N2CCOCC2)ccc1OCc1ccc(F)cc1 [Example 123, 2-{[(4-Fluorophenyl)methyl]oxy}-N-(2-fluoro-3-pyridinyl)-5-(4-morpholinylcarbonyl)benzamide] | ≤ 100 | 39.8 | ≤ 20 | 2.51
16 | CCOC(=O)CCc1ccc(OCc2ccccc2)c(C(=O)Nc2cccnc2)c1 [Example 87, Ethyl 3-{-4-[(phenylmethyl)oxy]-3-[(3-pyridinylamino)carbonyl]phenyl}propanoate] | ≤ 10 | – | ≤ 20 | –
17 | COc1cccc(COc2ccc(-c3cnn(C)c3)cc2C(=O)Nc2cccnc2)c1 [Example 115, 2-({[3-(Methyloxy)phenyl]methyl}oxy)-5-(1-methyl-1H-pyrazol-4-yl)-N-3-pyridinylbenzamide] | ≤ 100 | – | ≤ 20 | –
18 | O=C(Nc1ccnnc1)c1cc(-c2ccncc2)ccc1OCc1ccccc1 [Example 74, 2-[(Phenylmethyl)oxy]-N-4-pyridazinyl-5-(4-pyridinyl)benzamide] | ≤ 10 | – | ≤ 20 | –
19 | NCCOCCOc1ccc(OCc2ccccc2)c(C(=O)Nc2cccnc2)c1 [Example 49, 5-({2-[(2-Aminoethyl)oxy]ethyl}oxy)-2-[(phenylmethyl)oxy]-N-3-pyridinylbenzamide] | ≤ 10 | – | ≤ 20 | –
20 | Cc1nocc1NC(=O)c1cc(-c2ccncc2)ccc1OCc1ccccc1 [Example 61, N-(3-Methyl-4-isoxazolyl)-2-[(phenylmethyl)oxy]-5-(4-pyridinyl)benzamide] | ≤ 10 | – | ≤ 20 | –
21 | C[C@@H]1CN(c2ccc(OCc3ccccc3)c(C(=O)Nc3cccnc3)c2)C[C@H](C)N1C [Example 103, 2-[(Phenylmethyl)oxy]-N-3-pyridinyl-5-[(3R,5S)-3,4,5-trimethyl-1-piperazinyl]benzamide] | ≤ 10 | – | ≤ 20 | –
